Data taken from patent US20260325661A1, “ANTIBODY-CONJUGATED IMMUNO-ACTIVATING SMALL MOLECULE COMPOUND, AND USE” (SHENZHEN CONJUGENIX PHARMACEUTICAL TECHNOLOGY CO., LTD, priority 2023, published 2026).
Read-outs that look alike come from different tables or passages of the source.

Tested on: human peripheral blood mononuclear cells (PBMCs)
Experiment: ELISA assay of immunocyte activator: induction of IFN-γ in human PBMCs
Assay type: cell-based
Description: The immune activity of each compound is represented by the function of inducing human peripheral blood mononuclear cells (PBMCs) to produce the immune cytokine IFN-γ by, and the EC50 values thereof are shown in Table 3.
• 1) Peripheral blood samples from healthy human volunteer were collected into heparin anticoagulant tubes to reach 5 mL of fresh blood, and PBS was added at a ratio of 1:1 to dilute the blood (2 mL+2 mL in conventional blood collection tubes). • 2) 5 mL of lymphocyte separation medium was put in a 15 mL sterile centrifuge tube for use. • 3) The diluted blood was aspirated and slowly added from 1 cm above the separation medium along the tube wall, so that the diluted blood overlaid the separation medium and formed a distinct interface therewith. • 4) The centrifuge tube was centrifuged at 2000 rpm at room temperature for 20 min. Now five layers formed in the centrifuge tube: the top layer was plasma layer, and the layer between the plasma layer and the lymphocyte separation medium was the lymphocyte layer as a white film. • 5) The mononuclear cell layer as a white film in the middle was aspirated carefully and mononuclear cells were aspirated as many as possible. The mononuclear cells were washed by more than 5 volumes of PBS twice, and each time, the mononuclear cells were centrifuged at 1500 rpm for 10 min. • 6) The supernatant was removed, then 1 mL of 1640 medium was added and mixed uniformly. A small amount of the mixture was taken for cell counting.
The prepared PBMCs were plated in a 96-well plate (Costar, 3894) (2×10^5 cells per well). Each compound in Table 3 was taken and added into the wells with plated cells at ten concentrations with uniform gradient distribution (0.0001-10 μM, diluted with […] medium containing […]).

[1] = Homo sapiens, PBMC, 24 h, 37 °C, no pretreatment marked, read-out: EC50 IFN-γ ratio (inducing human PBMCs to produce IFN-γ)
[2] = 24 h, 37 °C, Note a: sample pretreated with human liver microsomal enzyme, 2 h, read-out: EC50 IFN-γ ratio (inducing human PBMCs to produce IFN-γ)
[3] = Homo sapiens, PBMC, 24 h, pH 5, 24 h, 37 °C; Note d: sample pretreated by hydrolysis, acetate buffer pH 5, 37 °C, 72 h; read-out: EC50 IFN-γ ratio (inducing human PBMCs to produce IFN-γ)
[4] = Homo sapiens, PBMC, 24 h, 37 °C, Note c: sample pretreated with Cathepsin-B (10 μg) in PBS, room temperature, 3 h, read-out: EC50 IFN-γ ratio (inducing human PBMCs to produce IFN-γ)
[5] = Homo sapiens, PBMC, 24 h, 37 °C, Note a: sample pretreated with human liver microsomal enzyme, 2 h, read-out: EC50 IFN-γ ratio (inducing human PBMCs to produce IFN-γ)

Compound | EC50 [1] | also measured
C=CC(=O)Nc1cc(Nc2nccc(-c3cn(C)c4ccccc34)n2)c(OC)cc1N(C)CCN(C)CCCCCCNC(=N)C(CCCCc1cn(CCOCCOCCOCCN=C=S)nn1)NC(=O)CCC(=O)NCc1ccc(Cn2c(=O)[nH]c3c(N)nc(OCCOC)nc32)cc1 (centres unmarked) [Compound K46] | 0.09 µM | 
C#Cc1c(F)ccc2cc(O)cc(-c3c(Cl)cc4c(N5CC6CCC(C5)N6C(=O)OCc5ccc(NC(=O)[C@H](CCCNC(N)=O)NC(=O)[C@@H](NC(=O)C(CCCCc6cn(CCOCCOCCOCCNC(=O)CCN7C(=O)C=CC7=O)nn6)NC(=O)CCC(=O)NCc6ccc(Cn7c(=O)[nH]c8c(N)nc(OCCOC)nc87)cc6)C(C)C)cc5)nc(OC[C@@]56CCCN5C[C@H](F)C6)nc4c3F)c12 (some centres unmarked) [Compound K33] | 0.18 µM | 
CCCCOc1nc(N)c2[nH]c(=O)n(Cc3cn(CCOCCOCCOCC(=O)N[C@H](CCCCc4cn(COCCOCCOCCOCCN5C(=O)C=CC5=O)nn4)C(=O)N[C@H](C(=O)N[C@@H](CCCNC(N)=O)C(=O)Nc4ccc(COC(=O)NC[C@H](C)c5ccc(-c6c(O)cc(C)c7[nH]c(=O)c8sccc8c67)cc5)cc4)C(C)C)nn3)c2n1 [Compound K8] | 0.11 µM | 
C=C(CC)C(=O)c1ccc(OCC(=O)NCc2ccc(Cn3c(=O)[nH]c4c(N)nc(OCCOC)nc43)cc2)c(Cl)c1Cl [SZU-103, reference compound] | 0.1 µM | 
C=C(CN1CCC(Cn2c(=O)n(C(=O)NCCNC(=O)OCc3ccc(NC(=O)[C@H](CCCNC(N)=O)NC(=O)[C@@H](NC(=O)CCOCCOCCOCCOCCNC(=O)CCC(=O)N4Cc5ccccc5C#Cc5ccccc54)C(C)C)cc3)c3c(N)nc(OCCCC)nc32)CC1)C(=O)OCC [Compound K52] |  | EC50 [2]: 0.12 µM
COCCOc1nc(N)c2[nH]c(=O)n(Cc3ccc(CNC(=O)CCC(=O)N[C@@H](CCCCNC(=O)OCc4ccc(NC(=O)[C@H](CCCNC(N)=O)NC(=O)[C@@H](NC(=O)CCCCCN5C(=O)C=CC5=O)C(C)C)cc4)C(=O)NCCOCCOCCOCCOCCNC(=O)CCC(=O)N4Cc5ccccc5C#Cc5ccccc54)cc3)c2n1 [Compound K2] | 0.05 µM | 
COCCOc1nc(N)c2[nH]c(=O)n(Cc3ccc(CNC(=O)CCC(=O)NC(CCCCc4cn(CCOCCOCCOCCNC(=O)CCN5C(=O)C=CC5=O)nn4)C(=O)NCCOCCOCCOCCOc4ccc(-c5nnc(C)nn5)cc4)cc3)c2n1 (centres unmarked) [Compound K25] | 0.005 µM | 
COCCOc1nc(N)c2[nH]c(=O)n(Cc3ccc(CNC(=O)CCc4cn(CCOCCOCCOCCN(CCOCCOCCOCCn5cc(CCC(=O)NCc6ccc(Cn7c(=O)[nH]c8c(N)nc(OCCOC)nc87)cc6)nn5)C(=O)OCc5ccc(NC(=O)[C@H](CCCNC(N)=O)NC(=O)[C@@H](CC(=O)NCOCCOCCOCCN=[N+]=[N-])C(C)C)cc5)nn4)cc3)c2n1 [Compound K23] | 0.03 µM | 
COCCOc1nc(N)c2[nH]c(=O)n(Cc3ccc(CNC(=O)CCC(=O)O)cc3)c2n1 [SZU-101, reference compound] |  | EC50 (24 h, 37 °C; no pretreatment marked; read-out: EC50 IFN-γ ratio (inducing human PBMCs to produce IFN-γ)): 0.5 µM
CCCCOc1nc(N)c2[nH]c(=O)n(Cc3cn(CCN)nn3)c2n1 [KJ-032] | 0.11 µM | 
C=CCNC(=S)NCC(=O)n1c(=O)n(Cc2ccc(CNC(=O)CCc3cn(CCOCCOCCOCCNC(=O)CCN4C(=O)C=CC4=O)nn3)cc2)c2nc(OCCOC)nc(N)c21 [Compound K67] |  | EC50 [3]: 0.26 µM
C=C(CN1CCC(Cn2c(=O)[nH]c3c(N)nc(O[C@@H](C)CCC)nc32)CC1)C(=O)NCCOCCOCCOCCOCCNC(=O)CCC(=O)N1Cc2ccccc2C#Cc2ccccc21 [Compound K49] | 0.011 µM | 
CCCCOc1nc(N)c2[nH]c(=O)n(Cc3cn(CCOCCOCCOCCN(C[C@H](C)c4ccc(-c5c(O)cc(C)c6[nH]c(=O)c7sccc7c56)cc4)C(=O)OCc4ccc(NC(=O)[C@H](CCCNC(N)=O)NC(=O)[C@@H](NC(=O)CCCCCN5C(=O)C=CC5=O)C(C)C)cc4)nn3)c2n1 [Compound K18] | 0.09 µM | 
C=C(CN1CCN(C(=O)n2c(=O)n(CCCc3cn(CCOCCOCCOCC(=O)OCC)nn3)c3nc(OCCCC)nc(N)c32)CC1)C(=O)NCCOCCOCCOCCOCCNC(=O)CCC(=O)N1Cc2ccccc2C#Cc2ccccc21 [Compound K61] |  | EC50 (Homo sapiens, PBMC, 24 h, pH 6, 24 h, 37 °C, Note b: sample pretreated with equimolar glutathione, PBS pH 6, 37 °C, read-out: EC50 IFN-γ ratio (inducing human PBMCs to produce IFN-γ)): 0.002 µM
C=C(CC(=O)OC)C(=O)NCc1ccc(Cn2c(=O)n(C(=O)NCCNC(=O)OCc3ccc(NC(=O)[C@H](CCCNC(N)=O)NC(=O)[C@@H](NC(=O)CCOCCOCCOCCOCCNC(=O)CCC(=O)N4Cc5ccccc5C#Cc5ccccc54)C(C)C)cc3)c3c(N)nc(OCCOC)nc32)cc1 [Compound K39] |  | EC50 [4]: 0.001 µM
C=C(CN1CCC(Cn2c(=O)[nH]c3c(N)nc(O[C@@H](C)CCC)nc32)CC1)C(=O)OCC [KJ-096] | 0.003 µM | 
CCCCOc1nc(N)c2c(n1)n(CCCc1cn(CCOCCOCCOCCNC(=O)CCN3C(=O)C=CC3=O)nn1)c(=O)n2COC(=O)OC(C)C [Compound K41] |  | EC50 [3]: 0.002 µM
C=C(CN(C[C@H](C)c1ccc(-c2c(O)cc(C)c3[nH]c(=O)c4sccc4c23)cc1)C(=O)OCc1ccc(NC(=O)[C@H](CCCNC(N)=O)NC(=O)[C@@H](NC(=O)CCOCCOCCOCCOCCN2C(=O)C=CC2=O)C(C)C)cc1)C(=O)N1CCC(n2cc(Cn3c(=O)n(C(=O)N4CCN(C)CC4)c4c(N)nc(OCCCC)nc43)nn2)CC1 [Compound K62] |  | EC50 [5]: 0.01 µM
C=CC(=O)Nc1cc(Nc2nccc(-c3cn(C)c4ccccc34)n2)c(OC)cc1N(C)CCN(C)CCOCCOCCOCCn1cc(Cn2c(=O)n(C(=O)NCCNC(=O)OCc3ccc(NC(=O)[C@H](CCCNC(N)=O)NC(=O)[C@@H](NC(=O)CCOCCOCCOCCOCCNC(=O)CCC(=O)N4Cc5ccccc5C#Cc5ccccc54)C(C)C)cc3)c3c(N)nc(OCCCC)nc32)nn1 [Compound K38] |  | EC50 [4]: 0.09 µM
C#CCCCCC(NC(=O)CCC(=O)NCc1ccc(Cn2c(=O)[nH]c3c(N)nc(OCCOC)nc32)cc1)C(=O)O (centres unmarked) [SZU-115, reference compound] |  | EC50 (24 h, 37 °C; no pretreatment marked; listed as GY115, 1440 min; read-out: EC50 IFN-γ ratio (inducing human PBMCs to produce IFN-γ)): 0.3 µM
C#CCCCn1c(=O)[nH]c2c(N)nc(OCCCC)nc21 [GY121, reference compound] | 0.05 µM | 
CCC[C@H](C)Oc1nc(N)c2c(n1)n(CC1CCN(C(=O)/C=C/C(=O)c3ccc(OC)cc3)CC1)c(=O)n2C(=O)NCCNC(=O)OCc1ccc(NC(=O)[C@H](CCCNC(N)=O)NC(=O)[C@@H](NC(=O)CCOCCOCCOCCOCCNC(=O)CCC(=O)N2Cc3ccccc3C#Cc3ccccc32)C(C)C)cc1 [Compound K57] |  | EC50 [2]: 0.003 µM
CCC[C@H](C)Oc1nc(N)c2[nH]c(=O)n(CC3CC[N+]([O-])(CCO)CC3)c2n1 (some centres unmarked) [KJ-3b-O] | 0.09 µM | 
C=C(CN1CCC(Cn2c(=O)n(C(=O)NCCNC(=O)OCc3ccc(NC(=O)[C@H](CCCNC(N)=O)NC(=O)[C@@H](NC(=O)CCOCCOCCOCCOCCNC(=O)CCC(=O)N4Cc5ccccc5C#Cc5ccccc54)C(C)C)cc3)c3c(N)nc(O[C@@H](C)CCC)nc32)CC1)C(=O)OCC [Compound K51] |  | EC50 [2]: 0.002 µM
COCCOc1nc(N)c2c(n1)n(Cc1ccc(CNC(=O)CCc3cn(CCOCCOCCOCCNC(=O)CCN4C(=O)C=CC4=O)nn3)cc1)c(=O)n2COC(=O)OC(C)C [Compound K16] |  | EC50 [3]: 0.011 µM
CC[C@@]1(O)C(=O)OCc2c1cc1n(c2=O)Cc2c-1nc1cc(F)c(C)c3c1c2[C@@H](NC(=O)CO[Si](OCCOCCOCCNC(=O)C(CCCCc1cn(CCOCCOCCOCCNC(=O)CCN2C(=O)C=CC2=O)nn1)NC(=O)CCC(=O)NCc1ccc(Cn2c(=O)[nH]c4c(N)nc(OCCOC)nc42)cc1)(C(C)C)C(C)C)CC3 (some centres unmarked) [Compound K17] |  | EC50 (Homo sapiens, PBMC; 24 h, 37 °C; no pretreatment marked; read-out: EC50 IFN-γ ratio (inducing human PBMCs to produce IFN-γ)): 0.21 µM
COCCOc1nc(N)c2c(n1)n(Cc1ccc(CNC(=O)CCc3cn(CCOCCOCCOCCNC(=O)OCc4ccc(NC(=O)[C@H](CCCNC(N)=O)NC(=O)[C@@H](NC(=O)CCCCC(=O)O)C(C)C)cc4)nn3)cc1)c(=O)n2C1CCCO1 (some centres unmarked) [Compound K12] |  | EC50 [5]: 0.2 µM
COCCOc1nc(N)c2[nH]c(=O)n(Cc3ccc(CNC(=O)CCC(=O)NC(CCCCc4cn(CCOCCOCCOCCNC(=O)CCN5C(=O)C=CC5=O)nn4)C(=O)NCCOCCOCCOCCNC(=O)OC4CC/C=C/CCC4)cc3)c2n1 (centres unmarked) [Compound K26] | 0.002 µM | 
CC[C@H](C)[C@@H]([C@@H](CC(=O)N1CCCC1[C@H](OC)[C@@H](C)C(=O)N[C@H](C)[C@@H](O)c1ccccc1)OC)N(C)C(=O)[C@@H](NC(=O)[C@H](C(C)C)N(C)C(=O)OCc1ccc(NC(=O)[C@H](CCCNC(N)=O)NC(=O)[C@@H](NC(=O)C(CCCCc2cn(CCOCCOCCOCCC(=O)O)nn2)NC(=O)CCC(=O)NCc2ccc(Cn3c(=O)[nH]c4c(N)nc(OCCOC)nc43)cc2)C(C)C)cc1)C(C)C (some centres unmarked) [Compound K5] | 0.13 µM | 
